# What was measured:
# [1] = target: T1, IgE-Tb binding to sFcεR1α-Y131A-AF488 (Homo sapiens, UniProt P01854, N146Q/N252Q); test: In vitro FRET assay of IgE-Tb binding to sFcεR1α receptor (protocol for examples 9 and 10, 18 hours incubation); conditions: examples 9 and 10: compound incubated 30 minutes with IgE-Tb before sFcεR1α-Y131A-AF488; incubated 18 hours at room temperature; read-out: FRET IC50 range
# T1 construct: fused on or other part: LanthaScreen amine-reactive terbium chelate label on IgE-Fc (about 4 Tb per IgE-Fc)
# T1 sequence (P01854 whole entry N146Q/N252Q, the tested form may be a part): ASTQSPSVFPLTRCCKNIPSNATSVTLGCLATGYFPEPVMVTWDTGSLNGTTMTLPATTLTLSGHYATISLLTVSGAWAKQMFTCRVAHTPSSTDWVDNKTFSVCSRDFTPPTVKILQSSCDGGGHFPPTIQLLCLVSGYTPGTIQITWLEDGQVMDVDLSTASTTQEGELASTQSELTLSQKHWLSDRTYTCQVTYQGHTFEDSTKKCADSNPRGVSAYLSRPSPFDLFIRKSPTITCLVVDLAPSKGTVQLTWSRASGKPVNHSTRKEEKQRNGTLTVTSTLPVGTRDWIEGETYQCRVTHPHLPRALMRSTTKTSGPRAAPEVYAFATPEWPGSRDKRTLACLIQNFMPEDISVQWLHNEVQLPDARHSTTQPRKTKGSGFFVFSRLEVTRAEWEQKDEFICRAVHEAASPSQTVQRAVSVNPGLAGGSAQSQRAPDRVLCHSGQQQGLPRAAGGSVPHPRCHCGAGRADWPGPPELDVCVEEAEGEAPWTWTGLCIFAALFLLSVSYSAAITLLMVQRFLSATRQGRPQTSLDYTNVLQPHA
# Method: In vitro Biochemical Assay:
# Protocol for preparation of IgE-Tb reagent
# 86 nmoles of IgE-Fc(N265Q, N371Q) (Young et al., 1995) at 172 μM in 100 mM NaHCO3, pH 9.5 was added to 1 mg of LanthaScreen™ Amine Reactive Tb Chelate (ThermoFisher catalogue number PV3583) and incubated for 16 hours at 20° C. The material was then buffer exchanged into Phosphate Buffered Saline (being, 137 mM NaCl, 2.7 mM KCl, 10 mM Na2HPO4, 1.8 mM K2HPO4, pH 7.4) and the material quantified and the degree of Tb conjugation determined by measuring the absorption at 280 nm and 343 nm.
# (§1) The integrity of the conjugated material was determined by analytical size exclusion chromatography on a 5200 HR 10×300 column (GE Healthcare). […]
# 175 nmoles of protein was added to 1 mg of Alexa Fluor™ 488 hydrazide (Invitrogen) and incubated for 16 hours at 22° C. […] The protein was buffer exchanged into Phosphate Buffered Saline (being, 137 mM NaCl, 2.7 mM KCl, 10 mM Na2HPO4, 1.8 mM K2HPO4, pH 7.4) and the material quantified and the degree of Alexa Fluor™ 488 conjugation determined by measuring the absorption at 280 nm and 495 nm.
# as §1
# The aim was to measure binding of IgE-Tb to receptor, and the inhibition thereof by compounds, using an in vitro Fluorescence Resonance Energy Transfer (FRET) Assay. […]
# [2] = target: T2, IgE-Tb binding to soluble IgE receptor FcεRIα-Y131A-AF488 (Homo sapiens, UniProt P0DOX4, N265Q/N371Q); test: In vitro FRET assay of IgE-Tb binding to FcεRIα receptor (protocol for most examples, 2 hours incubation); conditions: 5 nM IgE-Tb, 25 nM FcεRIα-Y131A-AF488; incubated 2 hours at room temperature; read-out: FRET IC50 range
# T2 construct: 86 nmoles of IgE-Fc(N265Q, N371Q) (Young et al., 1995)
# T2 sequence (P0DOX4 224-547 N265Q/N371Q limits assumed): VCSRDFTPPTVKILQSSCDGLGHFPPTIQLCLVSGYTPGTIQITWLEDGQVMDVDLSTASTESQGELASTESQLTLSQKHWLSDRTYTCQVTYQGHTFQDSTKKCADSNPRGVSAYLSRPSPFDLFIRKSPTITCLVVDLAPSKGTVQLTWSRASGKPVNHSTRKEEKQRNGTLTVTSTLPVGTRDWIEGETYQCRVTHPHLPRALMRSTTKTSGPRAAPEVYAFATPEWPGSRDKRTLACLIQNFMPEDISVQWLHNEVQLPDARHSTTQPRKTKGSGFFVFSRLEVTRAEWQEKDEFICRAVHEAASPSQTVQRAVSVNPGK
# Method: In vitro Biochemical Assay: Protocol for preparation of IgE-Tb reagent 86 nmoles of […]) (Young et al., 1995) at 172 μM in 100 mM NaHCO3, pH 9.5 was added to 1 mg of LanthaScreenTM Amine Reactive Tb Chelate (ThermoFisher catalogue number PV3583) and incubated for 16 hours at 20° C. The material was then buffer exchanged into Phosphate Buffered Saline (being, 137 mM NaCl, 2.7 mM KCl, 10 mM Na2HPO4, 1.8 mM K2HPO4, pH 7.4) and the material quantified and the degree of Tb conjugation determined by measuring the absorption at 280 nm and 343 nm. The integrity of the conjugated material was determined by analytical size exclusion chromatography on a 5200 HR 10×300 column (GE Healthcare). Typical conjugation ratios were 4:1 Tb:IgE-Fc. • Young R J., Owens, […]., Chan C M W., Shi J., Hide […]., Henry A J., Sutton B J., and Gould H J (1995) Protein Engineering 8:193-199 Protocol for preparation of […] reagent […] Oxidation was quenched with the addition of 40 μl of ethanediol and incubation for 60 minutes at 22° C. The protein was buffer exchanged in to conjugation buffer (50 mM NaHCO3, 150 mM NaCl, pH 9.5) and concentrated to 750 μM. 175 nmoles of protein was added to 1 mg of Alexa FluorTM 488 hydrazide (Invitrogen) and incubated for 16 hours at 22° C. […] The protein was buffer exchanged into Phosphate Buffered Saline (being, 137 mM NaCl, 2.7 mM KCl, 10 mM Na2HPO4, 1.8 mM K2HPO4, pH 7.4) and the material quantified and the degree of Alexa FluorTM 488 conjugation determined by measuring the absorption at 280 nm and 495 nm. The integrity of the conjugated material was determined by analytical size exclusion chromatography on a 5200 HR 10×300 column (GE Healthcare). Typical conjugation ratios were 2:1 Alexa FluorTM488: sFcεR1α • Cook J P D., Henry […]., Owens R J., Sutton B J., and Gould H J (1997) Biochemistry 36:15579-15588 The aim was to measure binding of IgE-Tb to receptor, and the inhibition thereof by compounds, using an in vitro Fluorescence Resonance Energy Transfer (FRET) Assay. Reagents FRET reagents used were IgE labelled with Terbium (FRET donor), and soluble IgE receptor FcεRIα with a Y131A mutation, labelled with Alexa FluorTM 488 (FRET acceptor). Unlabelled FcεRIα was also used to generate a background control. The assay buffer consisted of 20 mM Tris pH7.2, 150 mM NaCl, and 0.002% Tween, 1% DMSO. Assay Reaction For most of the examples the assay was conducted according to the following: Each assay reaction was conducted in a volume of 25 μl in a 384-well half-volume plate. 10 point compound serial dilutions (3-fold) were generated in DMSO at a concentration of ×50 that of the final assay concentration (FAC). Compound solutions were then prepared by IgE-Tb diluting 10-fold in assay buffer. For the assay, 5 μl of diluted compound was added to 10 μl of IgE-Tb, followed by addition of 10111 FcεRIα-Y131A-AF488. FRET reagents FACs were 5 nM IgE-Tb, 25 nM FcεRIα-Y131A-AF488. Usually the top FAC of compound in the assay was 10 μM. The final DMSO concentration was 2%. The minimum signal (MIN) was measured by adding 5 μl unlabelled FcεRIα at 1 μM (FAC=200 nM) to the FRET reagents. The maximum FRET signal (MAX) was measured in wells containing FRET reagents but no compound. The assay was incubated for 2 hours at room temperature, protected from light and evaporation, and with gentle agitation. FRET Measurement Measurement of FRET for each well was carried out by exciting at 330 nm and measuring emission at 495/520 nm using an Envision plate reader (Perkin Elmer). FRET ratio was calculated as follows: Emission at 520/Emission at 495×1000. The FRET ratio was used for the data analysis. Data Analysis Z' was calculated as follows (σ=standard deviation and μ=mean): 1-((3×σMAX)+(3×σMIN))/(μMAX-/μMIN) Z' above 0.5 was considered a good assay. Background signal (MIN) was subtracted from all wells. Using the background subtracted values, the percent inhibition by compound in each test-well was calculated as follows: 100-Test-well FRET ratio/MAX FRET ratio×100. […]
SMILES,IC50 [1] [µM],IC50 [2] [µM]
"CC(C)CNS(=O)(=O)c1c2c(cc3oc(C4CC4)nc13)CCC(n1cnnc1Nc1cc(C(F)F)nn1C)C2 (stereo not drawn) [Example 9, 2-cyclopropyl-6-[3-[[5-(difluoromethyl)-2-methylpyrazol-3-yl]amino]-1,2,4-triazol-4-yl]-N-(2-methylpropyl)-5,6,7,8-tetrahydrobenzo[f][1,3]benzoxazole-4-sulfonamide]",0.05 to 0.1,
"CC(C)CNS(=O)(=O)c1c2c(cc3c1NC(C1CC1)=NO3)CCCC2 [Example 10, 3-cyclopropyl-N-isobutyl-6,7,8,9-tetrahydro-4H-benzo[g][1,2,4]benzoxadiazine-5-sulfonamide]",0.05 to 0.1,
"Cc1cc(-n2cnnc2NC2CCc3c(cc4cnc(C5CC5)cc4c3S(=O)(=O)NCC(C)(C)F)C2)n(C)n1 (stereo not drawn) [Example 24, 3-cyclopropyl-8-[[4-(2,5-dimethylpyrazol-3-yl)-1,2,4-triazol-3-yl]amino]-N-(2-fluoro-2-methyl-propyl)-6,7,8,9-tetrahydrobenzo[g]isoquinoline-5-sulfonamide formic acid]",,0.1 to 2
